In US20160374944A1, “COMPOSITIONS AND METHODS FOR TREATING AND PREVENTING CANCER BY TARGETING AND INHIBITING CANCER STEM CELLS” (priority 2011, published 2016):

Experiments:
[1] = tested on: Pancreatic CSCs; assay: caspase-3/7 activity; format: cell-based, human
Description: (A and B) Induction of apoptosis and activation of caspase-3/-7. Pancreatic CSCs were treated with rottlerin (0-2 μM) for 48 h, and apoptosis and caspase-3/-7 activity were measured by […] and colorometric assay, respectively. […] (C) Pancreatic CSCs were treated with rottlerin (0-1 μM) for 48 h, and the expression of Bcl-2, XIAP and Survivin was measured by qRT-PCR and normalized to GAPDH.
(A) Regulation of caspase-3/7 activity by EGCG. CSCs were treated with EGCG (0-60 μM) for 24 h, and caspase-3/7 activity was measured as per manufacturer's instructions. […] (B) Regulation of apoptosis by EGCG. CSCs were treated with EGCG (0-60 μM) for 48 h, and apoptosis was measured by TUNEL assay. […] (C) Regulation of apoptosis-related proteins. Pancreatic CSCs were treated with EGCG (0-60 μM) for 36 h. Real time PCR (q-RT-PCR) was performed to examine the expression of Bcl-2, survivin, XIAP, and GAPDH.

[2] = tested on: Gli transcriptional activity in pancreatic CSCs; assay: Gli-responsive GFP/firefly luciferase reporter; format: cell-based, human
Description: (A) Pancreatic CSCs were treated with rottlerin (0-1 μM) for 24 h. The expression of Patched-1, Smo and Gli-2 was measured by qRT-PCR. […] (B) Pancreatic CSCs were transduced with Gli-responsive GFP/firefly luciferase viral particles (pGreen Fire1-Gli with EF1, System Biosciences). After transduction, culture medium was replaced and CSCs were treated with rottlerin (0-2 μM) for 24 h. Gli-responsive reporter activity was measured using a luciferase assay (Promega Corporation).
FIG. 40A and FIG. 40C are graphs and photographs showing the inhibition of components of sonic hedgehog pathway, Gli transcription and nuclear translocation by EGCG. (A) Inhibition of components of sonic hedgehog pathway and Gli transcription. Pancreatic CSCs were treated with EGCG (0-60 μM) for 36 h. The expression of Smothened (Smo), patched 1 (PTCH1), patched 2 (PTCH2), was measured by q-RT-PCR. […] (B) Inhibition of Gli1 and Gli2 expression and Gli transcription. Pancreatic CSCs were treated with EGCG (0-60 μM) for 36 h. The expression of Gli1 and Gli2 was measured by q-RT-PCR. Gli reporter activity. CSCs were transduced with Gli-responsive GFP/firefly luciferase viral particles (pGreen Fire1-Gli with EF1, System Biosciences). After transduction, culture medium was replaced and CSCs were treated with EGCG (0-60 μM) for 24 h. Gli-responsive reporter activity was measured by luciferase assay (Promega Corporation). […] Stained cells were mounted and visualized under a fluorescence microscope. Blue fluorescence of DAPI was changed to red color for a better contrast.
FIG. 42A and FIG. 42B show graphs showing quercetin synergizes with EGCG to inhibit self-renewal capacity, invasion, migration, and TCF/LEF and Gli transcriptional activities in pancreatic CSCs. […] Cell viability was measured by trypan blue assay. […] At the end of incubation period, colonies were counted. […] Cells invaded to the lower chambered were fixed with methanol, stained with crystal violet and counted. […] Cells migrated to the lower chambered were fixed with methanol, stained with crystal violet and counted. […] Apoptosis was measured by TUNEL assay. […]

| SMILES | caspase-3/7 activity ([1]; EGCG 0-60 μM, 24 h) | Gli transcriptional activity ([2]; EGCG 0-60 μM, 24 h, luciferase assay) | Gli transcriptional activity ([2]; EGCG 40 μM with or without quercetin 20 μM, 48 hrs, luciferase) | caspase-3/-7 activity ([1]; rottlerin 0-2 μM, 48 h, colorometric assay) | Gli transcriptional activity ([2]; rottlerin 0-2 μM, 24 h, luciferase assay) |
| --- | --- | --- | --- | --- | --- |
| O=C(O[C@@H]1Cc2c(O)cc(O)cc2O[C@@H]1c1cc(O)c(O)c(O)c1)c1cc(O)c(O)c(O)c1 [EGCG, epigallocatechin gallate] | induced caspase-3/7 activity and apoptosis in pancreatic CSCs in a dose-dependent manner | inhibited Gli transcriptional activity in a dose-dependent manner | inhibited | – | – |
| CC(=O)c1c(O)c(C)c(O)c(Cc2c(O)c3c(c(C(=O)/C=C/c4ccccc4)c2O)OC(C)(C)C=C3)c1O [rottlerin] | – | – | – | induced | inhibited Gli transcriptional activity in a dose-dependent manner |
